The results in this text go back to patent US8043623B2, “Immunogenic peptides for the treatment of prostate and breast cancer” (The Government of the United States of America as …, priority 2003, dated 2011).

Entries after “also recorded” stand apart in the source; their conditions may differ.

In experiment [1] the test system is peptide-pulsed C1R-A2.1 target cells. Description: Human CTL 5-hour ^51Cr release assay on peptide-pulsed targets. Type of experiment: cell-based. The conditions noted are these: for cytolytic activity of human CD8^+ CTL raised with the peptide against targets pulsed with the corresponding peptide / recognition of TARP-27-35 by human CTL raised with the peptide: C1R-A2.1 targets; for cross-reactivity of human CD8^+ CTL raised with the peptide to other peptides (wild-type TARP-29-37, enhanced epitopes): C1R-A2.1 targets pulsed with 10 μM peptides; for peptide concentration at which CTLs specific for TARP-29-37-9V recognize targets pulsed with the named peptide (avidity): label = peptide pulsed on targets, effector = TARP-29-37-9V-specific human CTL. As to the method: (§1) In vitro human CD8^+ T cell priming with DC. Elutriated monocytes and lymphocytes were obtained from HLA-A2.1-positive patients or normal donors. To prepare DC, monocytes were cultured at 10^6 cells/ml in complete medium containing human IL-4 (1000 units/ml) and human GM-CSF (1000 units/ml). On day 2 and 4, half of the media was exchanged. To mature the DC, CD40 ligand trimer (Immunex, Seattle, Wash.) was added at 1 μg/ml on day 4 or 5, and then further cultured for 2 or 3 days. Cells were harvested on day 7, and then pulsed with 10 μM of peptides for 2 hours before γ-irradiation. 1×10^5 peptide-pulsed DC and 2×10^6 autologous CD8^+ T cells were mixed and cultured in 24-well plates. 10 units/ml IL-2 was added on day 2 during restimulation. Cells were restimulated every 7-9 days approximately 4-7 cycles.
(§2) CTL assay. For murine CTL, CD8^+ T cells from the immunized mice were restimulated with peptide-loaded splenocytes for one week as previously described (Oh et al., J Immunol 170:2523, 2003), and then applied to 5 hour ^51Cr release assays. Target cells were labeled with ^51Cr first and washed twice. Cells were then pulsed with peptides for 2 hours and used as target cells without further washing. For human CTL, target cells were also labeled with ^51Cr first, and then loaded with peptides. In the CTL assay against human tumor cells, target cells were incubated in the complete medium containing 1000 units/ml IFN-γ for 72 hours. The mean of triplicate samples was calculated, and the percentage of specific lysis was determined using the following formula: Percentage of specific lysis=100×[(experimental ^51Cr release−control ^51Cr release)/(maximum ^51Cr release−control ^51Cr release)]. The maximum release refers to counts from targets in 2.5% Triton X-100.

In a further experiment the test system is MCF-7. Description: CTL assay against human tumor cells (MCF-7). Type of experiment: cell-based. As to the method:
as §1, §2

In another experiment the target is T1, HLA-A2.1 molecules (Homo sapiens, UniProt P04439, D140Y/D185E/D98H/E176V/E277Q/G131W/G231S/I119V/I121R/I166T/I218V/L300P/L318F/N151K/N90K/P208A/P217A/Q86G/Q94H/R138H/R169H/T345S).
T1 construct: The T2 cell line is deficient in TAP1 and TAP2 transporter proteins and expresses low levels of HLA-A2.1; endogenous in cells; host or cells: T2 cell line (TAP1/TAP2-deficient)
Kind of experiment: T2-binding assay. Conditions: T2 cells; for binding capacity to HLA-A2.1 molecules: overnight with β2-microglobulin, anti-HLA-A2 staining. The method, then:
T2-binding assay. Peptide binding capacity to HLA-A2.1 molecules was measured by using the T2 cell line according to a protocol previously described (Nijman et al., Eu. J. Immunol. 23:1215, 1993). T2 cells (3×10^5/well) were incubated overnight in 96-well plates with culture medium (1:1 mixture of RPMI 1640/EHAA containing 2.5% FBS, 100 U/ml penicillin, 100 μg/ml streptomycin) with 10 μg/ml β2-microglobulin (Sigma) and different concentrations of peptide. Cells were washed twice with cold PBS containing 2% FBS and incubated for 30 minutes at 4° C. with anti-HLA-A2.1 BB7.2 mAb ( 1/80 dilution from hybridoma supernatant). After washing, cells were stained with FITC-labeled goat anti-mouse Ig (PharMingen, San Diego, Calif.) and the level of HLA-A2.1 expression was measured by flow cytometry. HLA-A2.1 expression was quantified as fluorescence index (FI) according to the formula: FI=(mean fluorescence intensity with peptide-mean fluorescence intensity without peptide)/mean fluorescence intensity without peptide.

A further experiment has as its system A2K^b transgenic mice. Kind of experiment: Immunization of A2K^b transgenic mice; murine CTL assay and intracellular IFN-γ staining. Type of experiment: in vivo. The conditions noted are these: for cross-reactivity of murine CD8^+ CTL induced with the peptide: recognition of wild-type TARP-29-37 and other peptides on pulsed targets: Jurkat-HLA-A2 targets pulsed with peptides; for frequency of CD8^+ T cells specific for the individual peptide, compared to wild-type TARP-29-37: mice immunized s.c. with peptide and cytokine in adjuvant, IFN-γ staining; for number of IFN-γ-producing CD8^+ T cells, of total CD8^+ T cells: mice immunized with peptide-pulsed DC, intracellular staining. The method, then:
Immunizations. A2K^b transgenic mice were immunized with syngeneic peptide-loaded dendritic cells (DC), plasmid DNA expressing TARP, or the mixture of peptide and cytokine in incomplete Freund's adjuvant (IFA). For DC immunization, DC were pulsed with 10 μM peptide in serum-free RPMI for 2 hours at 37° C., and then mice were immunized subcutaneously (s.c.) with 1-3×10^5 DC without washing. DC were prepared from bone marrow as previously described (Celluzzi et al. J. Exp. Med. 183:283, 1996). Alternatively, mice were immunized intramuscularly with 100 μg plasmid DNA, pcDNA5/FRT/TARP, generated by inserting the TARP DNA into the pcDNA5/RFT (Invitrogen, Carlsbad, Calif.) vector. Mice were also immunized subcutaneously (s.c.) in the base of the tail with 100 μl of an emulsion containing 1:1 IFA and PBS with antigens and cytokines (50 nmol CTL epitope, 50 nmol HBV core 128-140 helper epitope, 3 μg of IL-12, and 5 μg of granulocyte macrophage colony stimulating factor (GM-CSF). IFA and cytokines were purchased from Sigma and Peptotech (Rocky Hill, N.J.), respectively.
as §2
Antibody and flow cytometry. FITC-labeled anti-mouse CD8 (53-6.7), CD11c, CD80 (B7-1), CD54 (ICAM-1), anti-human CD8 (RPA-T8), CD14 (M5E2), CD80 (B7-1), and CD86 (B7-2) were used for staining of cell surface molecules. For intracellular IFN-γ staining, cells were stained by following the manufacturer's protocol. All Abs and reagents were purchased from PharMingen. For flow cytometric analysis of cell surface, 5×10^5 cells were washed and resuspended in PBS containing 0.2% BSA and 0.1% sodium azide. Cells were incubated on ice with the appropriate antibody for 30 minutes and then washed. Samples were analyzed on a FACScan (BD Biosciences, Mountain View, Calif.). Background staining was assessed by use of an isotype control antibody. For tetramer staining, cells were incubated with FITC-labeled anti-CD8 for 10 minutes, and then stained with tetramers.

In another experiment the test system is CD8^+ T cells. Kind of experiment: In vitro human CD8^+ T cell priming with peptide-pulsed DC. Conditions: CD8^+ T cells of an HLA-A2.1-positive prostate cancer patient, peptide-pulsed autologous DC. Type of experiment: cell-based. As to the method:
as §1

Where [2] appears, read: 50:1 E/T ratio, targets pre-incubated with IFN-γ 72 hours.

Consider “FLANFSLML (TARP peptide with a R3A substitution.) [TARP-29-37-3A]”, for which, in experiment [1], the “cytolytic activity of human CD8^+ CTL raised with the peptide against targets pulsed with the corresponding peptide” value is on record as “higher levels of cytolytic activity against the corresponding peptides”; the “recognition of TARP-27-35 by human CTL raised with the peptide” value is listed as “to some extent”; the “cross-reactivity of human CD8^+ CTL raised with the peptide to other peptides (wild-type TARP-29-37, enhanced epitopes)” value is “poorly recognized the wild-type and TARP-29-37-9V; also recorded: did not recognize other peptides as much as they did the immunogens; also recorded: did not recognize wild-type peptide very well in the human”; the “peptide concentration at which CTLs specific for TARP-29-37-9V recognize targets pulsed with the named peptide (avidity)” value is on record as “only slightly lower avidity”. In addition, the “lytic activity against MCF-7 of CD8^+ CTL specific for the peptide” value (“lytic activity … for the peptide” below) with MCF-7 (setting [2]) was “less lytic activity to MCF-7; also recorded: much lower lytic activity against tumor cells than CTLs to TARP-29-37-9V”. The “lytic activity … for the peptide” value in the experiment on MCF-7 (100:1 E/T ratio) is reported as “comparable range of lytic activity against MCF-7 cells; also recorded: significant range of specific lysis only at a 100:1 E:T ratio”. The “binding affinity to HLA-A2.1 molecules compared with another peptide” value with HLA-A2.1 molecules was “greatest increase in the binding affinity; also recorded: not less than that of the positive control peptide, FMP; also recorded: highest binding affinity”. In the experiment on A2K^b transgenic mice (^51Cr release), the “cross-reactivity of murine CD8^+ CTL induced with the peptide: recognition of wild-type TARP-29-37 and other peptides on pulsed targets” value is reported as “recognized TARP-29-37-3A/MHC complex better than other peptide/MHC Class I complexes; also recorded: weak cross-reactivity to wild-type peptide in the mice”; the “killing of target cells pulsed with TARP-27-35 by murine CTL induced with the peptide” value is “did not kill target cells pulsed with TARP-27-35”. The “frequency of CD8^+ T cells specific for the individual peptide, compared to wild-type TARP-29-37” value in the experiment with A2K^b transgenic mice was “almost two-fold higher frequencies of CD8^+ T cells; also recorded: high CD8^+ T cell responses in transgenic mice”. Further, the “cycles of in vitro restimulation needed to detect peptide-specific CD8^+ T cells” value in the experiment on CD8^+ T cells is listed as “after only four cycles”.

Consider “FLRNFSLML (listed as Homo sapiens) [TARP-29-37]”, for which, in experiment [1], the “recognition of TARP-27-35 by human CTL raised with the peptide” value is given as “to some extent”; the “cross-reactivity of human CD8^+ CTL raised with the peptide to other peptides (wild-type TARP-29-37, enhanced epitopes)” value is “could recognize and lyse target cells pulsed with the wild-type as well as the two enhanced epitopes; also recorded: killed the wild-type peptide (TARP-29-37, SEQ ID NO: 5)-pulsed target cells efficiently; also recorded: could recognize all four peptide/MHC complexes”; the “peptide concentration at which CTLs specific for TARP-29-37-9V recognize targets pulsed with the named peptide (avidity)” value was “only slightly lower avidity”. The “binding capacity to HLA-A2.1 molecules” value in the experiment with HLA-A2.1 molecules is on record as “showed measurable binding capacity”. The “peptide-specific CD8^+ T cell responses (CTL)” value in the experiment with A2K^b transgenic mice (mice immunized with peptide-pulsed DC or plasmid DNA expressing TARP) is “lower peptide-specific CD8^+ T cell responses”. Besides, in the experiment on A2K^b transgenic mice, the “number of IFN-γ-producing CD8^+ T cells, of total CD8^+ T cells” value is on record as “significant number of CD8^+ T cells producing IFN-γ”.

With “FVFLRNFSL (listed as Homo sapiens) [TARP-27-35]”, in experiment [1], the “cytolytic activity of human CD8^+ CTL raised with the peptide against targets pulsed with the corresponding peptide” value is given as “higher levels of cytolytic activity against the corresponding peptides; also recorded: lysed TARP-27-35-pulsed target cells” and the “cross-reactivity of human CD8^+ CTL raised with the peptide to other peptides (wild-type TARP-29-37, enhanced epitopes)” value was “poorly recognized other peptide/MHC complexes tested; also recorded: did not recognize other peptides as much as they did the immunogens”. The “lytic activity … for the peptide” value in the experiment with MCF-7 (setting [2]) is “higher lytic activity against MCF-7; also recorded: could kill human tumor cells as well”. For the same substance, in the experiment with HLA-A2.1 molecules, the “binding affinity to HLA-A2.1 molecules compared with another peptide” value is recorded as “almost a ten-fold higher binding affinity” and the “binding capacity to HLA-A2.1 molecules” value is “showed measurable binding capacity”. For the same substance, the “cross-reactivity of murine CD8^+ CTL induced with the peptide: recognition of wild-type TARP-29-37 and other peptides on pulsed targets” value in the experiment on A2K^b transgenic mice (^51Cr release) is “did not recognize TARP-29-37”. Moreover, in the experiment on A2K^b transgenic mice, the “frequency of CD8^+ T cells specific for the individual peptide, compared to wild-type TARP-29-37” value is “higher frequency of CD8^+ CTL specific for the peptide” and the “number of IFN-γ-producing CD8^+ T cells, of total CD8^+ T cells” value is 2.1%.

As for “TARP-2-9: amino acids 2-9 of SEQ ID NO: 1 (QMFPPSPL; listed as Homo sapiens)”, the “binding capacity to HLA-A2.1 molecules” value with HLA-A2.1 molecules is “Neither TARP-2-9 nor TARP-22-30 showed any measurable binding affinity”.

With “TARP-22-30: amino acids 22-30 of SEQ ID NO: 1 (RLEHTFVFL; listed as Homo sapiens)”, in the experiment with HLA-A2.1 molecules, the “binding capacity to HLA-A2.1 molecules” value is listed as “Neither TARP-2-9 nor TARP-22-30 showed any measurable binding affinity”.

Turning to “TARP-27-35-2L: TARP-27-35 substituted at position 2 with Leu (FLFLRNFSL; listed as Homo sapiens)”, in the experiment with HLA-A2.1 molecules, the “binding affinity to HLA-A2.1 molecules compared with another peptide” value was “did not alter the binding affinity of the wild-type peptide”.

“TARP-27-35-9V: TARP-27-35 substituted at position 9 with Val (FVFLRNFSV; listed as Homo sapiens)”: in the experiment with HLA-A2.1 molecules, the “binding affinity to HLA-A2.1 molecules compared with another peptide” value was “did not alter the binding affinity of the wild-type peptide”.

“substitution with Ala at position 3 in TARP-27-35: TARP-27-35 with Phe at position 3 replaced by Ala (FVALRNFSL; listed as Homo sapiens)”: in the experiment with HLA-A2.1 molecules, the “binding capacity to HLA-A2.1 molecules” value was “no binding of the peptide to HLA-A2.1 molecules”.
